# Where two headings read alike, the source gives them in different places. Non-standard residues stand in square brackets, D forms with d. Residues, ends and D or L forms follow the SMILES beside them.
# Legend:
# red blood cells = format: cell-based, rat
# Experimental: Further, the hemolytic activity of the antimicrobial peptides was tested. EDTA-treated rat whole blood was centrifuged at 840×g for 3 minutes at 4° C. to separate blood cells and plasma. The plasma was removed, and the blood cells were washed three times with PBS having the same volume as the original blood volume by gently turning the centrifuge tube upside down. After washing, ten microliters of blood cells were diluted in PBS 2000 times to count the cells. Finally, red blood cells were diluted to 5×10^8 cells/mL in PBS. Peptides were dissolved in water and filtered through a 0.2-μm filter to make a stock solution. The peptide concentration was quantitated by UV280. The peptide solution was diluted in PBS to different concentrations (5 times of tested concentration). Twenty microliters of peptide in PBS were mixed with 80 μL of red blood cell solution in a 96-well plate (V-bottom). […] The concentration of heme contained in each well was measured by UV405 using Infinite M1000 pro (Tecan). The hemolytic activity was calculated using the following formula: Hemolytic activity=[(F−F0)/(Ft−F0)]×100% • F is UV405 of the peptide-treated sample; • F0 is UV405 of sample without peptide (negative control); • Ft is UV405 of the Triton-treated sample (positive control).
# [1] = test system: Candida albicans 12-99 (fluconazole-resistant)
# [2] = test system: Candida albicans 89 (echinocandin-resistant)
# [3] = test system: Cryptococcus neoformans H99
# [4] = test system: Cryptococcus neoformans T1 (fluconazole-resistant)
# [5] = test system: Cryptococcus neoformans 89-610 (fluconazole-resistant)
# [6] = test system: Cryptococcus deuterogattii R265
# [7] = test system: Cryptococcus gattii WM276
# [8] = test system: Acinetobacter baumannii ATCC 17978
# [9] = test system: Klebsiella pneumonia NTUH-K2044
# [10] = test system: Staphylococcus aureus BCRC 10777
# [11] = test system: Staphylococcus epidermidis ATCC 14990
# [12] = test system: Pseudomonas aeruginosa ATCC 9027; conditions: ATCC 9027
# [13] = test system: Salmonella typhimurium NCHU 15721; conditions: murium NCHU 15721
# [14] = test system: Xanthomonas campestris pv. campestris strain Xcc17; test: IC50 of bacterial growth (OD600) in rich liquid medium; format: cell-based; conditions: Xcc Xcc17, 24 h, purified peptides
# Experimental: (§1) To measure the antimicrobial activity, single colony grown on an optimal rich agar medium for each bacterium was picked and grew in 3 mL of the same rich liquid medium for 4 to 6 h. The bacterial culture was then diluted in the same medium to give a final concentration of OD600=0.08 and then further diluted […] in the same medium. In each well of a 96-well polystyrene plate, 90 μL of the diluted culture was mixed with 10 μL of the peptide to give a peptide concentration of 0, 2, 10, and 20 μg/mL (final cell concentration is 5×10^5 CFU/mL). OD600 was measured after incubation at an optimal temperature for 24 h. IC50 was determined as the lowest peptide concentration inhibiting 50% of bacterial growth.
# [15] = test system: Xanthomonas euvesicatoria strain Xvt28; test: as above; format: cell-based; conditions: Xev Xvt28, 24 h, purified peptides
# Experimental: as §1
# Eco DH5α = test: MIC and MBC by serial dilution in 96-well plate; format: cell-based, Escherichia coli; conditions: Table 7
# Experimental: (§2) The effect of peptide length on the antimicrobial activity was investigated by deciding the minimal inhibitory concentration (MIC) and minimal bactericidal concentration (MBC) for each peptide against the pathogen with the media and growth conditions of phytopathogenic bacteria and E. coli as described in Table 1. Single bacterial colony grown on an optimal rich agar medium was picked, and each grew in 3 mL of the same rich liquid medium for 4 to 6 h.
# (§3) For experiments carried out in the rich medium, the bacterial broth culture was then diluted in the same medium to give a final concentration of OD600=0.08, and then further diluted 100 folds in the same medium.
# (§4) For experiments carried out in the minimal medium, the bacterial cells were collected from the bacterial liquid culture by centrifugation, re-suspended in an optimal minimal medium to give a final concentration of OD600=0.08, and then further diluted 100 folds in the same minimal medium.
# (§5) Fifty microliters of serially diluted peptides (2-fold the final concentration) were added in a 96-well polystyrene plate with 50 μL of the bacterial culture. The final concentrations of peptides were 0, 2, 4, 8, 16 and 32 μg/mL. The plates were incubated at an optimal temperature without shaking.
# (§6) MBC was determined as the lowest peptide concentration at which no colonies formed.
# [16] = test system: Xanthomonas campestris pv. campestris strain Xcc17; test: MIC and MBC by serial dilution in 96-well plate; format: cell-based; conditions: Xcc Xcc17; Table 7
# Experimental: as §2, §3, §4, §5, §6
# [17] = test system: Xanthomonas euvesicatoria strain Xvt28; test: MIC and MBC by serial dilution in 96-well plate; format: cell-based; conditions: Xev Xvt28; Table 7
# Experimental: as §2, §3, §4, §5, §6
# [18] = test system: Pectobacterium carotovorum subsp. carotovorum; format: cell-based
# How it was run: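 Bacteria were grown 4–6 h, set to OD600=0.08 in rich or minimal medium, then diluted 100-fold. This inoculum was mixed 1:1 with 2-fold serial peptide dilutions and incubated static at optimal temperature. MIC was read from growth and MBC taken as the lowest concentration giving no colonies.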
# [19] = CD spectra of pepD in liposomes; format: physicochemical; conditions: CD in water, DOPC, POPE/POPG (1:1, w/w) liposomes
# Experimental: 1,2-dioleoyl-sn-glycero-3-phosphocholine (DOPC) is commonly used to mimic mammalian cell membrane. 1-Palmitoyl-2-oleoyl-sn-glycero-3-phosphoglycerol (POPG) has a negatively charged head group. The mixture of 1-palmitoyl-2-oleoyl-sn-glycero-3-phosphoethanolamine (POPE) and POPG is commonly used to mimic the negatively charged membrane surface of bacteria.
# For the CD spectra of pepD in lipids, two kinds of liposomes DOPC and POPE/POPG (1:1, w/w) were prepared. DOPC (10 mg/mL) and POPE/POPG (14 mg/mL) were dissolved in chloroform/methanol (9/1, v/v) in a glass tube individually. The solvents were evaporated under the purge of nitrogen gas to form a thin lipid film on the tube surface. The tube was placed in vacuo overnight to completely remove the organic solvent. To rehydrate the lipid film, 400 μL deionized water was added and mixed in an Intelli-Mixer (rocker mode, 60 rpm) for one hour. Then, the water/lipid mixture was frozen in liquid nitrogen and thawed at 45° C. for 5 min. After five freeze-thaw cycles, liposomes were prepared by extruding the mixture through a polycarbonate filter (with 200-nm pore size) using an Avanti Mini-Extruder (Avanti Polar Lipids, USA). Purified pepD was dissolved in water (64 μg/mL) and mixed with an equal volume of the liposome suspension for CD measurement.
# [20] = test system: Escherichia coli strain DH5a; conditions: DH5a, 24 h
# [21] = test system: Xanthomonas oryzae pv. oryzae strain Xoo28; conditions: Xoo Xoo28; rich medium, 24 h, purified peptides
# [22] = test system: Xanthomonas oryzae pv. oryzae strain Xoo28; conditions: Xoo Xoo28; Table 7
# [23] = test system: Agrobacterium tumefaciens strain Atu C58C1; conditions: Atu C58C1; Table 7
# [24] = test system: Pseudomonas syringae pv. tomato strain DC3000
# [25] = test system: Pseudomonas syringae pv. syringae strain B728a; conditions: Pss B728a; Table 7
compound,measurement,setting,value
"CC(=O)N[C@@H](Cc1c[nH]c2ccccc12)C(=O)N[C@H](CCCCN)C(=O)N[C@H](CCCCN)C(=O)N[C@H](CC(C)C)C(=O)N[C@H](CCCCN)C(=O)N[C@H](CCCCN)C(=O)N[C@H](CC(C)C)C(=O)N[C@H](CC(C)C)C(=O)N[C@H](CCCCN)C(=O)N[C@H](CCCCN)C(=O)N[C@H](CC(C)C)C(=O)N[C@H](CCCCN)C(=O)N[C@H](CCCCN)C(=O)N[C@H](CC(C)C)C(N)=O [pepdD2, Ac-Wkklkkllkklkkl-NH2] (Ac-W[dK][dK][dL][dK][dK][dL][dL][dK][dK][dL][dK][dK][dL]-NH2)",hemolytic activity,red blood cells,very little or non-hemolytic activity
same,MFC,Candida albicans SC5314; SC5314,32 µg/mL
same,MIC,Candida albicans SC5314; SC5314,32 µg/mL
same,MFC,[1],32 µg/mL
same,MIC,[1],16 µg/mL
same,MFC,[2],32 µg/mL
same,MIC,[2],32 µg/mL
same,MIC,[3]; Cryptococcus neoformans H99,4 µg/mL
same,MFC,[3]; H99,4 µg/mL
same,MIC,[4]; Cryptococcus neoformans T1 (fluconazole-resistant),2 µg/mL
same,MFC,[4]; T1 (fluconazole-resistant),2 µg/mL
same,MFC,[5]; 89-610 (fluconazole-resistant),2 µg/mL
same,MIC,[5]; Cryptococcus neoformans 89-610 (fluconazole-resistant),2 µg/mL
same,MFC,[6],2 µg/mL
same,MIC,[6]; Cryptococcus deuterogattii R265,2 µg/mL
same,MFC,[7],2 µg/mL
same,MIC,[7],2 µg/mL
same,MBC,[8],8 µg/mL
same,MBC,[9],32 µg/mL
same,MIC,[9],32 µg/mL
same,MBC,[10],32 µg/mL
same,MIC,[10],32 µg/mL
same,MBC,[11],32 µg/mL
same,MIC,[11],16 µg/mL
same,MBC,[12],4 µg/mL
same,MIC,[12],4 µg/mL
same,MBC,[13],16 µg/mL
same,MIC,[13],16 µg/mL
Ac-WKKLKKLLKKLKKLLKKL-NH2 [pepD],IC50,[14],4.0 µg/mL
same,IC50,[15],4.0 µg/mL
same,MBC,Eco DH5α,10.0 µg/mL
same,MIC,Eco DH5α,10.0 µg/mL
same,MBC,[16],6.7 µg/mL
same,MIC,[16],2.7 µg/mL
same,MBC,[17],18.7 µg/mL
same,MIC,[17],5.3 µg/mL
same,MIC,[18],32.0 µg/mL
same,MBC,"[18]; Pcc, Table 7",— (“—” indicates no antimicrobial activity being detected at the highest peptide concentration (32 μg/mL) tested in this study.)
same,lipid selectivity,[19],only interacts with negatively charged lipid
same,IC50,[20],10.0 µg/mL
same,IC50,[21],8.0 µg/mL
same,MIC,"Candida albicans SC5314; SC5314, 48 h",16.0 µg/mL
same,MBC,[22],4.0 µg/mL
same,MIC,[22],4.0 µg/mL
same,MBC,[23],— (“—” indicates no antimicrobial activity being detected at the highest peptide concentration (32 μg/mL) tested in this study.)
same,MBC,[24],24.0 µg/mL
same,MIC,[24],16.0 µg/mL
same,MBC,[25],— (“—” indicates no antimicrobial activity being detected at the highest peptide concentration (32 μg/mL) tested in this study.)
same,MIC,[25],32.0 µg/mL

# — patent US20240101602A1, “ANTIMICROBIAL PEPTIDES AND METHOD OF PREVENTING OR TREATING INFECTION BY USING THE SAME” (priority 2020, published 2024)
